Results from patent publication US9115092B2, “Substituted quinazoline and pyrido-pyrimidine derivatives” (Asana Biosciences, LLC, priority 2010, dated 2015).

Columns and labels:
[1] = target: T1, PI3Kα (wild-type), P110/P85α (Homo sapiens, UniProt P42336); experiment: PI3 Kinase TR-FRET assay, PI3Kα (wild-type); type: biochemical
T1 construct: made in house; host or cells: SF9 insect cells
How it was run: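 TR-FRET read-out of PIP3 formation via biotin-PIP3 displacement (665/615 nm ratio) gave IC50 curves. Enzyme: 5 ng wild-type P110/P85α from Sf9 cells, 60 min RT with compound and PIP2 (MgCl2 40 mM, DTT 5 mM), then 30 min RT kinase reaction at 10 μM ATP and 10 μM PIP2.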

mTOR kinase = target: T2, mTOR kinase (Homo sapiens, UniProt P42345); experiment: mTOR kinase TR-FRET assay; type: biochemical; conditions: read-out: mTO R
T2 construct: purchased Millipore, USA
How it was run: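 TR-FRET read-out (340 nm excitation, 615/665 nm emission) of Thr389 phosphorylation of a ULight-labeled p70 S6K peptide (50 nM) by mTOR, 20 μM ATP, 60 min room temperature after 60 min compound preincubation. Buffer HEPES pH 7.5 with MnCl2, EGTA; IC50 by sigmoidal dose-response.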

[2] = test system: pS6RP(S235/236), PC3 cells; experiment: In-cell Western assay, pS6RP(S235/236) in PC3 cells; type: cell-based, human
Experimental: Cells from human prostate cancer cell line PC3 (American Type Culture Collection (ATCC), Manassas, Va. 20108 USA) were seeded at an optimal density of 22,000 cell/well in 96-well plates containing Ham's F12K medium (90 μL) and incubated overnight. The compound dilutions were carried out in 100% DMSO followed by a dilution in the medium. Test compounds were added in serial dilutions to the wells and incubated for 2 h. The cells were washed and fixed with 4% paraformaldehyde. After incubation at room temperature for 1 h in the dark, blocking was done for 2 h at room temperature. Primary antibodies for phosphorylated (p) AKT(5473) (phosphorylated at serine 473), pAKT(T308) (phosphorylated at threonine 308) and for pS6RP(S235/236) (phosphorylated at serine 235/236) (commercially available from Cell Signaling Technology®, whose protocol was followed for the in-cell western assay, were diluted to the required concentration and added to the corresponding wells followed by overnight incubation at 4° C. Eu-labeled rabbit (PE) (Perkin-Elmer USA catalog #AD0106) secondary antibody was added and incubated for 2 h at room temperature. Delfia® enhancement solution (cat #1244-105, Perkin Elmer USA) was subsequently added to the plate before taking the reading at 615 nm with excitation wavelength of 340 nm, after which 0.5 μg/mL of Hoechst® 33258 dye (Catalog #86140-5, Sigma) was added to the plate and fluorescence emission was read at 460 nm with 355 nm excitation, to evaluate the correction factor. IC50 values were calculated using a sigmoidal dose-response curve fit in GraphPad Prism® v5 software.

PC3 cells = experiment: XTT assay for cell viability, PC3 cells; type: cell-based, human; conditions: Homo sapiens, PC-3, cell viability
Experimental: Using a commercial kit from Sigma Aldrich (Catalog #X34251) and following its protocol, PC3 cells in the log phase of growth were employed and seeded at an optimal density of 1000 cell/well on to 96 well plates and incubated for 24 h followed by the addition of compounds of formula (I) in serial dilutions. Compound dilutions were made in DMSO. The cells were incubated with the compounds of formula (I) for 96 h and XTT tetrazolium dye (Sigma, USA) was subsequently added and incubated at 37° C. After the color formation, absorbance was measured at 465 nm in a Spectramax® Gemini spectrophotometer. EC50 values were calculated using a sigmoidal dose response curve fit in GraphPad Prism® v5 software. The tested compounds of formula (I) which caused inhibition of PC3 cell proliferation as determined by this assay protocol are shown in Table 2.

[3] = Homo sapiens, PC-3, In-cell Western

T1 sequence (P42336 whole entry): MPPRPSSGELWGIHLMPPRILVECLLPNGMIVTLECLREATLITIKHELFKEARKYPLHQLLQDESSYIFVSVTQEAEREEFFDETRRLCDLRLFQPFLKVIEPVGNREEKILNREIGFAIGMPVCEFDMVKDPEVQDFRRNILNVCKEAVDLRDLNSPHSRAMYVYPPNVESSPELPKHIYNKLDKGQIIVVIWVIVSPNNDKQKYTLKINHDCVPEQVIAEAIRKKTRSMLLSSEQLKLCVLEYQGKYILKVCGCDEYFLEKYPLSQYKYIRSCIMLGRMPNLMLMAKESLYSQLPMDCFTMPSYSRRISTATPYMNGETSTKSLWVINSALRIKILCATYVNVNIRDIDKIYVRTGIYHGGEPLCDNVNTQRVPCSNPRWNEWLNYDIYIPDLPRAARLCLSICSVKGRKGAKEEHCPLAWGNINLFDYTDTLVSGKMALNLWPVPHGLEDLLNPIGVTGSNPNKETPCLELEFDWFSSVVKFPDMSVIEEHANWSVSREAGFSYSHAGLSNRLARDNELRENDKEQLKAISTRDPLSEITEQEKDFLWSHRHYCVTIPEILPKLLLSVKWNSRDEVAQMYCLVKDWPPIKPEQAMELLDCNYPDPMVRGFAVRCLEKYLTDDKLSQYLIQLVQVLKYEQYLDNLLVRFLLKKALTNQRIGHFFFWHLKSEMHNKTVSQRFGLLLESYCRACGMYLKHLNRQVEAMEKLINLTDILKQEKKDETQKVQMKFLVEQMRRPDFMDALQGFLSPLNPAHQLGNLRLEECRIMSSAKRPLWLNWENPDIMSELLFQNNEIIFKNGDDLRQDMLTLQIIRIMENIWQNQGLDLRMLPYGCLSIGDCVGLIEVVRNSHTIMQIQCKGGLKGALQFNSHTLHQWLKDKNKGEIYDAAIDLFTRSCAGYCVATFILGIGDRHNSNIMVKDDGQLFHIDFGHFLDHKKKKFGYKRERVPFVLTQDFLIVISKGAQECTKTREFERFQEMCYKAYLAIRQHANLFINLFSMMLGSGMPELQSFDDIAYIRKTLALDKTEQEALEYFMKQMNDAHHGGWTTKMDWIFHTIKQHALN
T1 sequence (P27986 whole entry partner): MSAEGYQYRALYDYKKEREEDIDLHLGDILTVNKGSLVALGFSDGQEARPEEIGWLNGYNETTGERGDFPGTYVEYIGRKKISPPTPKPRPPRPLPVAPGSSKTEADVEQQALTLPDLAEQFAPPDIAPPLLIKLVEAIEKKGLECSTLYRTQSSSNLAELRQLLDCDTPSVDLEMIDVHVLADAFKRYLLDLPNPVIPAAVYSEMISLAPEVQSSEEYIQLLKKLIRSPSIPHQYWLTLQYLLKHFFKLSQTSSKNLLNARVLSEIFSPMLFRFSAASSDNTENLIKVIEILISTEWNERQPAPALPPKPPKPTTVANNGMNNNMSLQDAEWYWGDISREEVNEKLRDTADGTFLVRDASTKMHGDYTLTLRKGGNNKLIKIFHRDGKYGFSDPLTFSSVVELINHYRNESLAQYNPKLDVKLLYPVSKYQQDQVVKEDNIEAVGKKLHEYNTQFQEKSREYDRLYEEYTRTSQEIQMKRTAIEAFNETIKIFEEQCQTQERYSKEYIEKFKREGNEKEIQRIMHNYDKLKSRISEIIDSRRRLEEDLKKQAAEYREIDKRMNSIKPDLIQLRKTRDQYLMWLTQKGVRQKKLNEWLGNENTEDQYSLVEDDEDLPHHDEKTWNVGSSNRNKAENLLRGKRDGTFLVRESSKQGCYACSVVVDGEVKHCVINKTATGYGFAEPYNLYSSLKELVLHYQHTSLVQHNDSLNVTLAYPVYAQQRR

SMILES | IC50 [1] [nM] | IC50 (mTOR kinase) [nM] | IC50 ([2]; In-cell Western) [nM] | IC50 (PC3 cells) [nM] | IC50 [2, 3] [nM]
CN(C)C1CCN(C(=O)c2ccc(NC(=O)Nc3ccc(-c4nc(N5CCOCC5)c5ncc(-c6cnn(C)c6)cc5n4)cc3)cc2)C1 (stereo in doubt) [Example 185, (S)-1-(4-(3-(dimethylamino)pyrrolidine-1-carbonyl)phenyl)-3-(4-(7-(1-methyl-1H-pyrazol-4-yl)-4-morpholino-pyrido[3,2-d]pyrimidin-2-yl)phenyl)urea] | < 50 | < 50 | 201 to 10000 |  | 
CN(C)C1CCN(C(=O)c2ccc(NC(=O)Nc3ccc(-c4nc(N5CCOCC5)c5ccc(-c6cncnc6)cc5n4)cc3)cc2)C1 (stereo in doubt) [Example 188, (S)-1-(4-(3-(dimethylamino)pyrrolidine-1-carbonyl)phenyl)-3-(4-(4-morpholino-7-(pyrimidin-5-yl)quinazolin-2-yl)phenyl)urea] | < 50 | < 50 | 201 to 10000 |  | 
CN(C)C1CCN(C(=O)c2ccc(NC(=O)Nc3ccc(-c4nc(N5CCOCC5)c5cc(F)c(-c6cccnc6)cc5n4)cc3)cc2)C1 (stereo in doubt) [Example 198, (S)-1-(4-(3-(dimethylamino)pyrrolidine-1-carbonyl)phenyl)-3-(4-(6-fluoro-4-morpholino-7-(pyridin-3-yl)quinazolin-2-yl)phenyl)urea] | < 50 | < 50 |  | 201 to 10000 | 201 to 10000
CN(C)C1CCN(C(=O)c2ccc(NC(=O)Nc3ccc(-c4nc(N5CCOCC5)c5ncc(-c6cncnc6)cc5n4)cc3)cc2)C1 (stereo in doubt) [Example 199, (S)-1-(4-(3-(dimethylamino)pyrrolidine-1-carbonyl)phenyl)-3-(4-(4-morpholino-7-(pyrimidin-5-yl)pyrido[3,2-d]pyrimidin-2-yl)phenyl)urea] | < 50 | < 50 |  | 201 to 10000 | 201 to 10000
CN(C)C1CCN(C(=O)c2ccc(NC(=O)Nc3ccc(-c4nc(N5CCOCC5)c5ccc(-c6cncnc6)cc5n4)cc3F)cc2)C1 (stereo in doubt) [Example 207, (S)-1-(4-(3-(dimethylamino)pyrrolidine-1-carbonyl)phenyl)-3-(2-fluoro-4-(4-morpholino-7-(pyrimidin-5-yl)quinazolin-2-yl)phenyl)urea] | < 50 | < 50 |  | < 100 | 201 to 10000
CN(C)C1CCN(C(=O)c2ccc(NC(=O)Nc3ccc(-c4nc(N5CCOCC5)c5ncc(-c6cnn(C)c6)cc5n4)cc3F)cc2)C1 (stereo in doubt) [Example 210, (S)-1-(4-(3-(dimethylamino)pyrrolidine-1-carbonyl)phenyl)-3-(2-fluoro-4-(7-(1-methyl-1H-pyrazol-4-yl)-4-morpholino-pyrido[3,2-d]pyrimidin-2-yl)phenyl)urea] | < 50 | < 50 | 201 to 10000 |  | 
Cc1ccc(-c2ccc3c(N4CCOCC4)nc(-c4ccc(NC(=O)Nc5ccc(C(=O)N6CC[C@@H](N(C)C)C6)cc5)cc4)nc3c2)o1 [Example 196, (R)-1-(4-(3-(dimethylamino)pyrrolidine-1-carbonyl)phenyl)-3-(4-(7-(5-methylfuran-2-yl)-4-morpholino-quinazolin-2-yl)phenyl)urea] | 50 to 200 | < 50 |  |  | < 100
CN(C)[C@@H]1CCN(C(=O)c2ccc(NC(=O)Nc3ccc(-c4nc(N5CCOCC5)c5cc(F)c(-c6cccnc6)cc5n4)cc3)cc2)C1 [Example 200, (R)-1-(4-(3-(dimethylamino)pyrrolidine-1-carbonyl)phenyl)-3-(4-(6-fluoro-4-morpholino-7-(pyridin-3-yl)quinazolin-2-yl)phenyl)urea] | < 50 | < 50 | 201 to 10000 |  | 
N[C@@H]1CCN(C(=O)c2ccc(NC(=O)Nc3ccc(-c4nc(N5CCOCC5)c5ccc(-c6cncnc6)cc5n4)cc3F)cc2)C1 [Example 209, (R)-1-(4-(3-aminopyrrolidine-1-carbonyl)phenyl)-3-(2-fluoro-4-(4-morpholino-7-(pyrimidin-5-yl)quinazolin-2-yl)phenyl)urea] | < 50 | < 50 | 201 to 10000 |  | 
CN(C)C(=O)c1ccc(NC(=O)Nc2ccc(-c3nc(N4CCOCC4)c4ccc(-c5cccnc5F)cc4n3)cc2)cc1F [Example 255, 2-fluoro-4-(3-(4-(7-(2-fluoropyridin-3-yl)-4-morpholino-quinazolin-2-yl)phenyl)ureido)-N,N-dimethyl-benzamide] | 50 to 200 | < 50 |  | 201 to 10000 | 
CN(C)C(=O)c1ccc(NC(=O)Nc2ccc(-c3nc(N4CCOCC4)c4cc(F)c(-c5cncnc5)cc4n3)c(F)c2)cc1 [Example 256, 4-(3-(3-fluoro-4-(6-fluoro-4-morpholino-7-(pyrimidin-5-yl)quinazolin-2-yl)phenyl)ureido)-N,N-dimethyl-benzamide] | 50 to 200 | 50 to 200 |  | 201 to 10000 | 
COc1ncc(-c2ccc3c(N4CCOCC4)nc(-c4ccc(NC(=O)Nc5ccc(C(=O)N(C)C)c(F)c5)cc4)nc3c2)cn1 [Example 257, 2-fluoro-4-(3-(4-(7-(2-methoxypyrimidin-5-yl)-4-morpholino-quinazolin-2-yl)phenyl)ureido)-N,N-dimethyl-benzamide] | < 50 | < 50 |  | 201 to 10000 | 
COc1ccc(-c2ccc3c(N4CCOCC4)nc(-c4ccc(NC(=O)Nc5ccc(C(=O)N(C)C)c(F)c5)cc4)nc3c2)cn1 [Example 259, 2-fluoro-4-(3-(4-(7-(6-methoxypyridin-3-yl)-4-morpholino-quinazolin-2-yl)phenyl)ureido)-N,N-dimethyl-benzamide] | 50 to 200 | < 50 |  | 201 to 10000 | 
CN(C)C(=O)c1ccc(NC(=O)Nc2ccc(-c3nc(N4CCOCC4)c4ccc(-c5cccnc5)cc4n3)cc2)cc1F [Example 260, 2-fluoro-N,N-dimethyl-4-(3-(4-(4-morpholino-7-(pyridin-3-yl)quinazolin-2-yl)phenyl)ureido)-benzamide] | < 50 | < 50 |  | 201 to 10000 | 
CN(C)C(=O)c1ccc(NC(=O)Nc2ccc(-c3nc(N4CCOCC4)c4ccc(-c5ccco5)cc4n3)cc2)cc1F [Example 265, 2-fluoro-4-(3-(4-(7-(furan-2-yl)-4-morpholino-quinazolin-2-yl)phenyl)ureido)-N,N-dimethyl-benzamide] | 50 to 200 | 50 to 200 |  | < 100 | 
CN(C)C(=O)c1ccc(NC(=O)Nc2ccc(-c3nc(N4CCOCC4)c4ccc(-c5ccc(CO)o5)cc4n3)c(F)c2)cc1 [Example 274, 4-(3-(3-fluoro-4-(7-(5-(hydroxymethyl)furan-2-yl)-4-morpholino-quinazolin-2-yl)phenyl)ureido)-N,N-dimethyl-benzamide] | < 50 | 50 to 200 |  | 201 to 10000 | 
CC(O)c1ccc(-c2ccc3c(N4CCOCC4)nc(-c4ccc(NC(=O)Nc5ccc(C(=O)N(C)C)cc5)cc4F)nc3c2)o1 (stereo not drawn) [Example 275, 4-(3-(3-fluoro-4-(7-(5-(1-hydroxyethyl)furan-2-yl)-4-morpholino-quinazolin-2-yl)phenyl)ureido)-N,N-dimethyl-benzamide] | 50 to 200 | < 50 |  | 201 to 10000 | 
CN(C)C(=O)c1ccc(NC(=O)Nc2ccc(-c3nc(N4CCOCC4)c4ccc(-c5cncnc5)cc4n3)c(F)c2F)cc1 [Example 280, 4-(3-(2,3-difluoro-4-(4-morpholino-7-(pyrimidin-5-yl)quinazolin-2-yl)phenyl)ureido)-N,N-dimethyl-benzamide] | 50 to 200 | < 50 |  | < 100 | 
CN(C)C(=O)c1ccc(NC(=O)Nc2ccc(-c3nc(N4CCOCC4)c4ccc(-c5ccco5)cc4n3)c(F)c2F)cc1 [Example 282, -(3-(2,3-difluoro-4-(7-(furan-2-yl)-4-morpholino-quinazolin-2-yl)phenyl)ureido)-N,N-dimethyl-benzamide] | 50 to 200 | 201 to 10000 |  | < 100 | 
